In patent US7250442B2, “Dihydroindol-2-one derivatives as steroid hormone nuclear receptor modulators” (Eli Lilly and Company, priority 2003, dated 2007):

Molecular target: T1, glucocorticoid receptor (Homo sapiens, UniProt P04150)
T1 construct: host or cells: A549 human lung epithelial cells (sonicated cell extract)
T1 sequence (P04150 1-777): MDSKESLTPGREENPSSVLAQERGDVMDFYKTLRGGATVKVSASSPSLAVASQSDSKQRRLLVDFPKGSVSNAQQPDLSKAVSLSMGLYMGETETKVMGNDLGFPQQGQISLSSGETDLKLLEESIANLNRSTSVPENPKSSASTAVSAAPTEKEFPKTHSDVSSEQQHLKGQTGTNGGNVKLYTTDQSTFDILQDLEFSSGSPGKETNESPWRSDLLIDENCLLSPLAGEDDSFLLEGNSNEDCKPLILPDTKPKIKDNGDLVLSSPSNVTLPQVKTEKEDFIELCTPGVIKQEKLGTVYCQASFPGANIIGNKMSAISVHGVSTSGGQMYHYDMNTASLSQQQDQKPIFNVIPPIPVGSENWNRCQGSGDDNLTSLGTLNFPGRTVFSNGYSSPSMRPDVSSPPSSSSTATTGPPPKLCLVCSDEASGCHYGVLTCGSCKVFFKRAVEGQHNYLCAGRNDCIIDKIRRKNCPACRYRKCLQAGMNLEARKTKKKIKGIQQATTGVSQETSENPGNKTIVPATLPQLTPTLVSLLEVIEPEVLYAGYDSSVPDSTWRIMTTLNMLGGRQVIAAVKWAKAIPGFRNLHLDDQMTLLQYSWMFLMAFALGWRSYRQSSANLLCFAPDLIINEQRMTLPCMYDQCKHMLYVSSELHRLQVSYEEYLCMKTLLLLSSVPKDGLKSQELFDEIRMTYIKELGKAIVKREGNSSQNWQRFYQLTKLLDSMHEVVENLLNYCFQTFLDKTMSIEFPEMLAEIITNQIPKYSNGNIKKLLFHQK
Assay: Glucocorticoid Receptor Binding Assay ([3H]-dexamethasone displacement, A549 cell extract)
Settings: A549 human lung epithelial cell extract, 1.86 nM [3H]-dexamethasone; read-out: GR Ki
Experimental: Glucocorticoid Receptor Binding Assay:
A549 human lung epithelial cells (ATCC) are grown at a scale where gram quantity cell pellets are obtained. Harvested cell pellets are washed twice in cold phosphate buffered saline, centrifuged, and resuspended in cold assay binding buffer. The assay binding buffer consists of 10% glycerol, 50 mM Tris-HCl (pH7.2), 75 mM sodium chloride, 1.5 mM magnesium chloride, 1.5 mM EDTA, and 10 mM sodium molybdate. Cell suspensions were lysed via sonication, centrifuged, and the “extract” supernatant is snap frozen and stored at −80C. until needed.
GR binding assays are performed in a final volume of 140 ul containing 50-200 ug of A549 cell extract and 1.86 nM [^3H]-dexamethasone (Amersham) plus varying concentrations of test compound or vehicle. Briefly, assays are prepared at RT in 96-well Fisher 3356 plates, each well containing 100 ul of A549 cell extract, 20 ul of [^3H]-dexamethasone, and 20 ul of test compound/vehicle. Incubations are carried out at 4 degrees celsius for 16 hours. After incubation, 70 ul of 3× dextran-coated charcoal solution is added to each reaction, mixed, and incubated for 8 minutes at RT. 3×-dextran-coated charcoal solution consists of 250 ml assay binding buffer, 3.75 g Norit A charcoal (Sigma), and 1.25 g dextran T-70 (Amersham). Charcoal/unbound radioligand complexes are removed by centrifugation of the plate and 140 ul of supernatant from each well is transferred to another 96 well Optiplate (Packard Instruments). 200 ul of Microscint-20 scinillant (Packard Instruments) is added to each well and amount of receptor bound radioligand is determined using Packard Instruments TopCount instrument.
IC50 values, defined as the concentration of test compound required to decrease [^3H]-dexamethasone binding by 50%, are then determined. Ki values for each respective test compound can then be calculated by application of the Cheng-Prusoff equation as described in Cheng et al., Relationship Between The Inhibition Constant (Ki) and The Concentration of Inhibitor Which Causes 50% Inhibition (IC50) of an Enzymatic Reaction, Biochem. Pharmacol., 22: 3099-31088; (1973).

CCCN1C(=O)C(c2cc(C)c(O)c(C)c2)(c2cc(C)c(O)c(C)c2)c2ccccc21 [Example 5, 3,3-Bis-(4-hydroxy-3,5-dimethyl-phenyl)-1-propyl-1,3-dihydro-indol-2-one] and CCOCCN1C(=O)C(c2cc(C)c(O)c(C)c2)(c2cc(C)c(O)c(C)c2)c2ccccc21 [Example 80, 1-(2-Ethoxy-ethyl)-3,3-bis-(4-hydroxy-3,5-dimethyl-phenyl)-1,3-dihydro-indol-2-one] cannot be ordered by Ki: no more than 500 nM for the first, no more than 500 nM for the second.

Cc1cc(C2(c3cc(C)c(O)c(C)c3)C(=O)N(c3ccccc3Cl)c3ccccc32)cc(C)c1O [Example 129, 1-(2-Chloro-phenyl)-3,3-bis-(4-hydroxy-3,5-dimethyl-phenyl)-1,3-dihydro-indol-2-one] and Cc1cc(C2(c3cc(C)c(O)c(C)c3)C(=O)N(c3ccccc3)c3ccccc32)cc(C)c1O [Example 126, 3,3-Bis-(4-hydroxy-3,5-dimethyl-phenyl)-1-phenyl-1,3-dihydro-indol-2-one] cannot be ordered by Ki: no more than 500 nM for the first, no more than 500 nM for the second.

Cc1cc(C2(c3cc(C)c(O)c(C)c3)C(=O)N(Cc3cccc(OC(F)(F)F)c3)c3ccccc32)cc(C)c1O [Example 8, 3,3-Bis-(4-hydroxy-3,5-dimethyl-phenyl)-1-(3-trifluoromethoxy-benzyl)-1,3-dihydro-indol-2-one] and Cc1cc(C2(c3cc(C)c(O)c(C)c3)C(=O)N(Cc3ccc(OC(F)(F)F)cc3)c3ccccc32)cc(C)c1O [Example 67, 3,3-Bis-(4-hydroxy-3,5-dimethyl-phenyl)-1-(4-trifluoromethoxy-benzyl)-1,3-dihydro-indol-2-one] cannot be ordered by Ki: no more than 500 nM for the first, no more than 500 nM for the second.

C=C(C)CN1C(=O)C(c2cc(C)c(O)c(C)c2)(c2cc(C)c(O)c(C)c2)c2ccccc21 [Example 106, 3,3-Bis-(4-hydroxy-3,5-dimethyl-phenyl)-1-(2-methyl-allyl)-1,3-dihydro-indol-2-one] and CCOC(=O)CN1C(=O)C(c2cc(C)c(O)c(C)c2)(c2cc(C)c(O)c(C)c2)c2ccccc21 [Example 109, [3,3-Bis-(4-hydroxy-3,5-dimethyl-phenyl)-2-oxo-2,3-dihydro-indol-1-yl]-acetic acid ethyl ester] cannot be ordered by Ki: no more than 500 nM for the first, no more than 500 nM for the second.

Cc1cc(C2(c3cc(C)c(O)c(C)c3)C(=O)N(Cc3noc(C4CCC4)n3)c3ccccc32)cc(C)c1O [Example 86, 1-(5-Cyclobutyl-[1,2,4]oxadiazol-3-ylmethyl)-3,3-bis-(4-hydroxy-3,5-dimethyl-phenyl)-1,3-dihydro-indol-2-one] and Cc1cc(C2(c3cc(C)c(O)c(C)c3)C(=O)N(CCC3CCCCC3)c3ccccc32)cc(C)c1O [Example 110, 1-(2-Cyclohexyl-ethyl)-3,3-bis-(4-hydroxy-3,5-dimethyl-phenyl)-1,3-dihydro-indol-2-one] cannot be ordered by Ki: no more than 500 nM for the first, no more than 500 nM for the second.

Cc1ccc2c(c1)C(c1cc(C)c(O)c(C)c1)(c1cc(C)c(O)c(C)c1)C(=O)N2Cc1ccccc1C [Example 21, 3,3-Bis-(4-hydroxy-3,5-dimethyl-phenyl)-5-methyl-1-(2-methyl-benzyl)-1,3-dihydro-indol-2-one] and Cc1ccc2c(c1)C(c1cc(C)c(O)c(C)c1)(c1cc(C)c(O)c(C)c1)C(=O)N2Cc1ccccc1C#N [Example 23, 2-[3,3-Bis-(4-hydroxy-3,5-dimethyl-phenyl)-5-methyl-2-oxo-2,3-dihydro-indol-1-ylmethyl]-benzonitrile] cannot be ordered by Ki: no more than 500 nM for the first, no more than 500 nM for the second.

COc1ccc(-c2nc(CN3C(=O)C(c4cc(C)c(O)c(C)c4)(c4cc(C)c(O)c(C)c4)c4ccccc43)cs2)cc1 [Example 94, 3,3-Bis-(4-hydroxy-3,5-dimethyl-phenyl)-1-[2-(4-methoxy-phenyl)-thiazol-4-ylmethyl]-1,3-dihydro-indol-2-one] and Cc1cc(C2(c3cc(C)c(O)c(C)c3)C(=O)N(Cc3csc(-c4ccccc4)n3)c3ccccc32)cc(C)c1O [Example 91, 3,3-Bis-(4-hydroxy-3,5-dimethyl-phenyl)-1-(2-phenyl-thiazol-4-ylmethyl)-1,3-dihydro-indol-2-one] cannot be ordered by Ki: no more than 10000 nM for the first, no more than 10000 nM for the second.

Cc1cc(C2(c3cc(C)c(O)c(C)c3)C(=O)N(Cc3cccc(C)c3F)c3ccccc32)cc(C)c1O [Example 70, 1-(2-Fluoro-3-methyl-benzyl)-3,3-bis-(4-hydroxy-3,5-dimethyl-phenyl)-1,3-dihydro-indol-2-one] and Cc1cc(C2(c3cc(C)c(O)c(C)c3)C(=O)N(Cc3cccc(F)c3F)c3ccccc32)cc(C)c1O [Example 66, 1-(2,3-Difluoro-benzyl)-3,3-bis-(4-hydroxy-3,5-dimethyl-phenyl)-1,3-dihydro-indol-2-one] cannot be ordered by Ki: no more than 500 nM for the first, no more than 500 nM for the second.

COc1ccc(N2C(=O)C(c3cc(C)c(O)c(C)c3)(c3cc(C)c(O)c(C)c3)c3ccccc32)cc1OC [Example 140, 1-(3,4-Dimethoxy-phenyl)-3,3-bis-(4-hydroxy-3,5-dimethyl-phenyl)-1,3-dihydro-indol-2-one] and Cc1cc(C2(c3cc(C)c(O)c(C)c3)C(=O)N(Cc3ccc(Cl)cc3F)c3ccccc32)cc(C)c1O [Example 83, 1-(4-Chloro-2-fluoro-benzyl)-3,3-bis-(4-hydroxy-3,5-dimethyl-phenyl)-1,3-dihydro-indol-2-one] cannot be ordered by Ki: no more than 500 nM for the first, no more than 500 nM for the second.

Cc1cc(C2(c3cc(C)c(O)c(C)c3)C(=O)N(Cc3ccc(-c4csnn4)cc3)c3ccccc32)cc(C)c1O [Example 84, 3,3-Bis-(4-hydroxy-3,5-dimethyl-phenyl)-1-(4-[1,2,3]thiadiazol-4-yl-benzyl)-1,3-dihydro-indol-2-one] and Cc1cc(C2(c3cc(C)c(O)c(C)c3)C(=O)N(Cc3ccc([N+](=O)[O-])cc3)c3ccccc32)cc(C)c1O [Example 62, 3,3-Bis-(4-hydroxy-3,5-dimethyl-phenyl)-1-(4-nitro-benzyl)-1,3-dihydro-indol-2-one] cannot be ordered by Ki: no more than 500 nM for the first, no more than 500 nM for the second.

Cc1cc(C2(c3cc(C)c(O)c(C)c3)C(=O)N(Cc3ccccc3Cl)c3cccc(Cl)c32)cc(C)c1O [Example 26, 4-Chloro-1-(2-chloro-benzyl)-3,3-bis-(4-hydroxy-3,5-dimethyl-phenyl)-1,3-dihydro-indol-2-one] and Cc1cc(C2(c3cc(C)c(O)c(C)c3)C(=O)N(Cc3ccccc3Cl)c3ccccc32)cc(C)c1N (centres unmarked) [Example 35, 3-(4-Amino-3,5-dimethyl-phenyl)-1-(2-chloro-benzyl)-3-(4-hydroxy-3,5-dimethyl-phenyl)-1,3-dihydro-indol-2-one] cannot be ordered by Ki: no more than 500 nM for the first, no more than 500 nM for the second.

COc1ccc(-c2noc(CN3C(=O)C(c4cc(C)c(O)c(C)c4)(c4cc(C)c(O)c(C)c4)c4ccccc43)n2)cc1 [Example 142, 3,3-Bis-(4-hydroxy-3,5-dimethyl-phenyl)-1-[3-(4-methoxy-phenyl)-[1,2,4]oxadiazol-5-ylmethyl]-1,3-dihydro-indol-2-one] and COC(=O)c1ccc(CN2C(=O)C(c3cc(C)c(O)c(C)c3)(c3cc(C)c(O)c(C)c3)c3ccccc32)cc1 [Example 3, 4-[3,3-Bis-(4-hydroxy-3,5-dimethyl-phenyl)-2-oxo-2,3-dihydro-indol-1-ylmethyl]-benzoic acid methyl ester] cannot be ordered by Ki: no more than 1000 nM for the first, no more than 500 nM for the second.

Cc1cc(C2(c3cc(C)c(O)c(C)c3)C(=O)N(Cc3ccccc3N)c3ccccc32)cc(C)c1O [Example 119, 1-(2-Amino-benzyl)-3,3-bis-(4-hydroxy-3,5-dimethyl-phenyl)-1,3-dihydro-indol-2-one] and Cc1cc(C2(c3ccc(O)cc3)C(=O)N(Cc3ccccc3Cl)c3ccccc32)cc(C)c1O (centres unmarked) [Example 36, 1-(2-Chloro-benzyl)-3-(4-hydroxy-3,5-dimethyl-phenyl)-3-(4-hydroxy-phenyl)-1,3-dihydro-indol-2-one] cannot be ordered by Ki: no more than 500 nM for the first, no more than 500 nM for the second.
